In PMC7356228, “Alvaxanthone, a Thymidylate Synthase Inhibitor with Nematocidal and Tumoricidal Activities” (Molecules, 2020):
Like-named read-outs stand apart in the source and are kept apart here.

Assays:
Experiment in all cases: Inhibition of TS-catalyzed reaction (tritium release from [5-3H]dUMP)
hTS = target: T1, hTS (Homo sapiens, UniProt P04818); assay type: biochemical; details: for IC50: read-out: IC50 Assessment
T1 construct: made in house
Text: (§1) The recombinant human, rat, mouse, T. spiralis and C. elegans TS proteins were produced, purified and separated into phosphorylated and non-phosphorylated fraction, as previously described. TS activity was monitored, following tritium release from [5-^3H]dUMP, and its inhibition studied as earlier reported.

mTS = target: T2, mTS (Mus musculus, UniProt P07607); assay type: biochemical; details: for remaining activity at 100 µM: compound 100 µM
T2 construct: made in house
Text: as §1

CeTS = target: T3, CeTS (Caenorhabditis elegans, UniProt Q9Y052); assay type: biochemical, C. elegans
T3 sequence (Q9Y052 1-315): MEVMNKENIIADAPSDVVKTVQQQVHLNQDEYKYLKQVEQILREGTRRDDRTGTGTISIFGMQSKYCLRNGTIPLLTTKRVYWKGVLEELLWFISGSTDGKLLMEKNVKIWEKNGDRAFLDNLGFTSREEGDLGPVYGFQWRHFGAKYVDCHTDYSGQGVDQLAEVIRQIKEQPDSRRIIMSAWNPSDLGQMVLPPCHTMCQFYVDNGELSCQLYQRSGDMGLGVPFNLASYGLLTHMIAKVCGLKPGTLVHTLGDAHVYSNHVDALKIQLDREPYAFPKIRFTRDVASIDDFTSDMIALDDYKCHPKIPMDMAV
Text: as §1

TsTS = TsTS (Trichinella spiralis, UniProt Q9NDD3); assay type: biochemical, T. spiralis; details: 20 µM dUMP, 250 µM meTHF; for remaining activity at 1000 µM: compound 1000 µM; for IC50: IC50 Assessment
Text: as §1

[1] = compound 1000 µM, 20 µM dUMP, 250 µM meTHF, read-out: % Remaining Activity
[2] = 20 µM dUMP, 250 µM meTHF, read-out: IC50 Assessment
[3] = compound 100 µM, 20 µM dUMP, 250 µM meTHF, read-out: % Remaining Activity
[4] = IC50 Assessment, 20 µM dUMP, 250 µM meTHF
[5] = 20 µM dUMP, 250 µM meTHF, read-out: % Remaining Activity
[6] = compound 10 µM, 20 µM dUMP, 250 µM meTHF

T2 sequence (P07607 whole entry): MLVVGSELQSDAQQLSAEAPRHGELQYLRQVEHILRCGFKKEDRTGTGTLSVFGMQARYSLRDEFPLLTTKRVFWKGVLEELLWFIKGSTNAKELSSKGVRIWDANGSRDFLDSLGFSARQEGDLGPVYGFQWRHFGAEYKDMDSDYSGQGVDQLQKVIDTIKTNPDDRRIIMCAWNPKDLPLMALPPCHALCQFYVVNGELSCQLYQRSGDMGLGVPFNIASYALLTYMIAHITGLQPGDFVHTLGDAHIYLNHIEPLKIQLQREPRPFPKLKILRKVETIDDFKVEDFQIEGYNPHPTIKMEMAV
Sequence of TsTS (Q9NDD3 entry or part of it): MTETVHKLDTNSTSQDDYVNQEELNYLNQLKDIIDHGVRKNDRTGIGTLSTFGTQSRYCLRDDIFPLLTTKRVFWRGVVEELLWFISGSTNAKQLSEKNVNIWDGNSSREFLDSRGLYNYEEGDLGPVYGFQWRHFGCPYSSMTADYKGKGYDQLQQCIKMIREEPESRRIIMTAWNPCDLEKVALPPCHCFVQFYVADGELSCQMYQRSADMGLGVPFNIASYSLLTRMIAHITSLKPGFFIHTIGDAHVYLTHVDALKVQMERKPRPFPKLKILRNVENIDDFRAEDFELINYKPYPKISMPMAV
T1 sequence (P04818 whole entry): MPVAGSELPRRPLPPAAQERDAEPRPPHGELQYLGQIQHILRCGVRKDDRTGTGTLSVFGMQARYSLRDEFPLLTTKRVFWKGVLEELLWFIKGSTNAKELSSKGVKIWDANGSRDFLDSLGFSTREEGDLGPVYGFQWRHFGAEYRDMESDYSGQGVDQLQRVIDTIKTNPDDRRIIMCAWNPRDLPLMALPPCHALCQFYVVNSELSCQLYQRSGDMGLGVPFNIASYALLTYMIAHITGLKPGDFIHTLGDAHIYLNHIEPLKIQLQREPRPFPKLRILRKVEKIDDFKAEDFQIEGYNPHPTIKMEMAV

Compound | IC50 (hTS; 20 µM dUMP, 250 µM meTHF) [µM] | remaining activity at 1000 µM (hTS; [1]) [%] | IC50 (mTS; [2]) [µM] | remaining activity at 1000 µM (mTS; [1]) [%] | IC50 (CeTS; [2]) [µM] | remaining activity at 1000 µM (CeTS; [1]) [%] | remaining activity at 1000 µM (TsTS) [%] | remaining activity at 100 µM (hTS; [3]) [%] | IC50 (mTS; [4]) [µM] | remaining activity at 100 µM (CeTS) [%] | remaining activity at 1000 µM (CeTS) [%] | IC50 (CeTS; [4]) [µM] | IC50 (TsTS) [µM] | remaining activity at 100 µM (CeTS; [3]) [%] | remaining activity at 100 µM (hTS) [%] | remaining activity at 1000 µM (hTS) [%] | remaining activity at 1000 µM (mTS) [%] | remaining activity at 100 µM (mTS; [5]) [%] | remaining activity at 10 µM (hTS; [6]) [%] | remaining activity at 10 µM (CeTS; [6]) [%]
COc1cc(/C=C/C(=O)O[C@H]2[C@H](O[C@@H]3O[C@@H](C)[C@H](O)[C@@H](O)[C@H]3O)[C@@H](O)[C@H](OCCc3ccc(O)c(O)c3)O[C@@H]2CO)ccc1O [Leucosceptoside A (13), Leucosceptoside A] | > 1000 | 66 | > 1000 | 77 | > 1000 | 83 | > 100 | – | – | – | – | – | – | – | – | – | – | – | – | –
CC12CCC3C(C1)c1c(cc(O)c(C(=O)c4ccccc4)c1OC3(C)C)O2 (centres unmarked) [Clusiacitran A (9), Clusiacitran A] | – | 47 | – | 62 | – | – | 95 | 89 | > 1000 | 88 | 44 | > 100 | > 1000 | – | – | – | – | – | – | –
O=C1c2c(O)cccc2C([C@@H]2O[C@H](CO)[C@@H](O)[C@H](O)[C@H]2O)c2cc(CO)cc(O)c21 (some centres unmarked) [Aloin (2), Aloin] | – | 49 | > 1000 | 95 | > 100 | 36 | 93 | 94 | – | – | – | – | > 1000 | 83 | – | – | – | – | – | –
CC1=C[C@]2(O)C(=O)[C@H](C)C[C@@H]3[C@H](CC[C@](C)(O)C[C@H]2C1=O)C3(C)C [Jatrowediol (10), Jatrowediol] | – | – | – | – | – | – | 95 | – | > 1000 | – | 77 | > 1000 | > 1000 | – | 100 | 43 | 80 | – | – | –
O=C(CCc1ccc(O)cc1)c1c(O)cc(O)cc1O [Phloretin (4), Phloretin] | – | 31 | – | 45 | > 100 | 48 | 61 | 86 | – | – | – | – | > 1000 | 82 | – | – | – | 78 | – | –
CC(=O)Oc1c(O)cc(-c2oc3cc(O)cc(O)c3c(=O)c2O)cc1O [Myricetin-4′-OAc (7), Myricetin-4′-OAc] | > 1000 | 31 | – | 49 | > 100 | 28 | 66 | 56 | – | – | – | – | > 1000 | 69 | – | – | – | 61 | – | –
O=C(/C=C/c1ccc(O)c(O)c1)O[C@@H]1C[C@](O)(C(=O)O)C[C@@H](O)[C@H]1O [Chlorogenic acid (3), Chlorogenic acid] | > 1000 | 76 | > 1000 | 83 | > 1000 | 82 | 94 | – | – | – | – | – | > 1000 | – | – | – | – | – | – | –
CC1(C)CCc2cc3c(cc2O1)OC(c1ccccc1)CC3=O (centres unmarked) [6-Chromane-O-7-flavanone (11), 6-Chromane-O-7-flavanone] | – | – | – | 10 | – | – | 85 | 37 | – | – | – | – | > 1000 | 24 | – | – | – | 91 | 100 | 100
COc1c(O)cc2oc(-c3ccccc3)c(O)c(=O)c2c1O [Alnusin (12), Alnusin] | – | 30 | – | > 100 | > 1000 | 80 | > 100 | 85 | – | – | – | – | – | – | – | – | – | – | – | –
